The record followed here is US20240270701A1, “BETA ADRENERGIC AGONIST AND METHODS OF USING THE SAME” (Curasen Therapeutics, Inc., priority 2021, published 2024).

Read-outs that look alike come from different tables or passages of the source.

For one assay, the target named is T1, B1-AR (Homo sapiens, UniProt P08588).
T1 construct: expressed in transfected cells; host or cells: CHO-K1
In words: cAMP Gs dynamic HTRF assay, cells expressing beta-adrenergic receptor (CHO-K1), B1-AR. It counts as cell-based. The settings on record: for EC50: cAMP HTRF, read-out: pEC50 [B1-AR] (converted); for Emax: relative to full agonist isoproterenol, read-out: Emax (% iso) (%) [B1-AR]. (In TR-FRET formats the signal depends on donor and acceptor labels being close together.)

Another assay deals with T2, B2-AR (Homo sapiens, UniProt P07550).
T2 construct: expressed in transfected cells; host or cells: CHO-K1
Description: cAMP Gs dynamic HTRF assay, cells expressing beta-adrenergic receptor (CHO-K1), B2-AR. It counts as cell-based. The following applies: for Emax: relative to full agonist isoproterenol, read-out: Emax (% iso) (%) [B2-AR]; for EC50: cAMP HTRF, read-out: pEC50 [B2-AR] (converted).

T2 sequence (P07550 whole entry, species assumed): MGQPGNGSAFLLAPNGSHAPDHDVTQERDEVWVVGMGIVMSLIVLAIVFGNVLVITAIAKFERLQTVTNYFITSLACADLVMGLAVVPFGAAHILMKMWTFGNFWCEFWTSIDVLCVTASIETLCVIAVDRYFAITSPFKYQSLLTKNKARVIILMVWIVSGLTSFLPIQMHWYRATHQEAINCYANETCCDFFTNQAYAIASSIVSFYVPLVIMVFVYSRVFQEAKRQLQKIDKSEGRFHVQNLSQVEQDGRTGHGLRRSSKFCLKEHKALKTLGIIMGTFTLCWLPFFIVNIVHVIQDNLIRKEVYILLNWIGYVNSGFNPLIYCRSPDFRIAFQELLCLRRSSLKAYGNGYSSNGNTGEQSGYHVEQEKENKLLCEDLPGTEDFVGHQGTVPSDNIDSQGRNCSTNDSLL
T1 sequence (P08588 whole entry, species assumed): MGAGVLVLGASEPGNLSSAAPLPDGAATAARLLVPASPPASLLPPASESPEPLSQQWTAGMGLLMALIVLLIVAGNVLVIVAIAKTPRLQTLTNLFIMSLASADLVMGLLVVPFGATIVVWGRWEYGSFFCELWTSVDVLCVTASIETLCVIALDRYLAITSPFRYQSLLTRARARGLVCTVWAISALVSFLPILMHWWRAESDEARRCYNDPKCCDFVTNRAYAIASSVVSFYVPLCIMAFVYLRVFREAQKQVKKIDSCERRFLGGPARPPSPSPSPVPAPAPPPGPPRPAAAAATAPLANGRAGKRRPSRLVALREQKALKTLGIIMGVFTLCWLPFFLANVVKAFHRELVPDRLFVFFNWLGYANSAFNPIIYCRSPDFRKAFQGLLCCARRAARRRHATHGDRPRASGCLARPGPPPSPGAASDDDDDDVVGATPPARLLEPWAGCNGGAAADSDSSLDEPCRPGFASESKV

What is called Emax is the greatest response seen or fitted, relative to the assay's reference. As to `CC1(NC[C@H](O)c2cc(C#N)cc3[nH]ncc23)CC1` [I-155], the results for the EC50 at B1-AR and at B2-AR (CHO-K1 cells) were 100 to 1000 nM and 10 to 100 nM, respectively. For the same compound, the Emax on B1-AR is 70 to 90%; at B2-AR (CHO-K1, CHO-K1 cells), above 90%.
Regarding `CC1(NC[C@H](O)c2cncc3[nH]ncc23)CCC1` [I-156], at B1-AR, the EC50 is 100 to 1000 nM and the Emax was 70 to 90%. In addition, at B2-AR (CHO-K1 cells), the EC50 was 10 to 100 nM and the Emax is above 90%.
`CC1(NC[C@H](O)c2cc(C#N)cc3[nH]ncc23)CCC1` [I-157]: the EC50 was 100 to 1000 nM at B1-AR and 10 to 100 nM on B2-AR (CHO-K1 cells). The maximum response (Emax) was 70 to 90% on B1-AR and above 90% at B2-AR (CHO-K1, CHO-K1 cells).
Consider `O[C@@H](CNC1CCC1)c1cncc2[nH]ncc12` [I-158], for which the EC50 on B1-AR and at B2-AR (CHO-K1 cells) was 100 to 1000 nM each time. Moreover, the maximal effect (Emax) on B1-AR and on B2-AR (CHO-K1 cells) was above 90% in each case.
On to `CC(C)NC[C@H](O)c1cncc2[nH]ncc12` [I-159], for which, on B1-AR, the EC50 was 100 to 1000 nM and the maximum response (Emax) lay within 70 to 90%. On B2-AR (CHO-K1 cells), the EC50 is 100 to 1000 nM and the Emax is above 90%.
For the compound `CC(C)CNC[C@H](O)c1cc(C#N)cc2[nH]ncc12` [I-160], the EC50 at B1-AR and on B2-AR (CHO-K1 cells) was 100 to 1000 nM each time. For the same compound, the Emax is 70 to 90% on B1-AR and 70 to 90% on B2-AR (CHO-K1, CHO-K1 cells).
For the compound `CC(C)NC[C@H](O)c1cc(C#N)cc2[nH]ncc12` [I-161], the EC50 at B1-AR and on B2-AR (CHO-K1 cells) was 10 to 100 nM each time. The Emax at B1-AR and at B2-AR (CHO-K1 cells) was above 90% throughout.
On to `CC(C)(CO)NC[C@H](O)c1cncc2[nH]ncc12` [I-162], for which the EC50 at B1-AR was above 1000 nM; at B2-AR (CHO-K1 cells), 100 to 1000 nM. In addition, the maximal response (Emax) at B1-AR and at B2-AR (CHO-K1 cells) was above 90% in each case.
Consider `CC(C)CNC[C@H](O)c1cncc2[nH]ncc12` [I-163], for which, on B1-AR, the EC50 was above 1000 nM and the Emax lay within 70 to 90%. Also, on B2-AR (CHO-K1 cells), the EC50 is above 1000 nM and the maximal effect (Emax) lay within 50 to 70%.
On to `O[C@@H](CNC1CC1)c1cncc2[nH]ncc12` [I-164], for which, at B1-AR, the EC50 is 100 to 1000 nM and the Emax was in the range of 70 to 90%. Besides, on B2-AR (CHO-K1 cells), the EC50 was 100 to 1000 nM and the maximum response (Emax) is above 90%.
In the case of `CCC(C)(C)NC[C@H](O)c1cccnc1C` [I-165], the EC50 on B1-AR and on B2-AR (CHO-K1 cells) was 100 to 1000 nM each time. The Emax was 70 to 90% at B1-AR and 70 to 90% at B2-AR (CHO-K1, CHO-K1 cells).
As for `Cc1n[nH]c2cccc([C@@H](O)CNC3CCC3)c12` [I-166], at B1-AR, the EC50 was 100 to 1000 nM and the Emax is 50 to 70%. Also, at B2-AR (CHO-K1 cells), the EC50 was 10 to 100 nM and the maximal effect (Emax) lay in the range of 70 to 90%.
For the compound `Cc1n[nH]c2cccc([C@@H](O)CNC3CC3)c12` [I-167], the results for the EC50 at B1-AR and at B2-AR (CHO-K1 cells) were above 1000 nM and 100 to 1000 nM, respectively. Moreover, the maximal effect (Emax) lay in the range of 70 to 90% at B1-AR and 70 to 90% on B2-AR (CHO-K1, CHO-K1 cells).
On to `Cc1n[nH]c2cccc([C@@H](O)CNC3(C)CCC3)c12` [I-168], for which, on B1-AR, the EC50 was 10 to 100 nM and the Emax lay within 70 to 90%. Besides, at B2-AR (CHO-K1 cells), the EC50 is below 10 nM and the maximal effect (Emax) fell in the range of 70 to 90%.
Take `Cc1n[nH]c2cccc([C@@H](O)CNC3(C)CC3)c12` [I-169]: on B1-AR, the EC50 is 100 to 1000 nM and the Emax is 70 to 90%. For the same compound, on B2-AR (CHO-K1 cells), the EC50 is 10 to 100 nM and the maximal effect (Emax) lay in the range of 70 to 90%.
Regarding `Cc1n[nH]c2cccc([C@@H](O)CNC(C)C)c12` [I-170], on B1-AR, the EC50 is 100 to 1000 nM and the Emax is 70 to 90%. On B2-AR (CHO-K1 cells), the EC50 is 10 to 100 nM and the maximum response (Emax) fell in the range of 70 to 90%.
Turning to `CCC(C)(C)NC[C@H](O)c1cc(Cl)c(N)nc1C` [I-171], the figures for the EC50 at B1-AR and on B2-AR (CHO-K1 cells) were 10 to 100 nM and below 10 nM, respectively. The Emax on B1-AR was 70 to 90%; on B2-AR (CHO-K1, CHO-K1 cells), above 90%.
Turning to `CCc1n[nH]c2cccc([C@@H](O)CNC(C)(C)C)c12` [I-172], the EC50 at B1-AR and at B2-AR (CHO-K1 cells) was 100 to 1000 nM each time. Moreover, the Emax on B1-AR was 70 to 90%; at B2-AR (CHO-K1 cells) it was 50 to 70%.
`Cc1n[nH]c2cccc([C@@H](O)CNC(C)(C)CO)c12` [I-173]: the EC50 on B1-AR and on B2-AR (CHO-K1 cells) was 100 to 1000 nM throughout. Besides, the Emax lay in the range of 70 to 90% at B1-AR and 70 to 90% at B2-AR (CHO-K1, CHO-K1 cells).
For `Cc1n[nH]c2cccc([C@@H](O)CNCC(C)C)c12` [I-174], the values for the EC50 on B1-AR and at B2-AR (CHO-K1 cells) were above 1000 nM and 100 to 1000 nM, respectively. Moreover, the Emax is 70 to 90% at B1-AR and 50 to 70% at B2-AR (CHO-K1 cells).
For `CC(C)(C)NC[C@H](O)c1cccc2[nH]nc(C(F)F)c12` [I-175] the same measures were 100 to 1000 nM, 100 to 1000 nM, 70 to 90% and 70 to 90%.
On to `Cc1ncccc1[C@@H](O)CNC(C)(C)CO` [I-176], for which the EC50 at B1-AR is above 1000 nM; at B2-AR (CHO-K1 cells), 100 to 1000 nM. Moreover, the Emax fell in the range of 50 to 70% at B1-AR and 70 to 90% on B2-AR (CHO-K1, CHO-K1 cells).
Taken in the same sequence, the figures for `Cc1ncccc1[C@@H](O)CNC1(C)CCC1` [I-177] were above 1000 nM, 10 to 100 nM, 70 to 90% and above 90%.
Taken in the same sequence, the figures for `Cc1nc(N)c(Cl)cc1[C@@H](O)CNC1CC(F)(F)C1` [I-178] were above 1000 nM, 100 to 1000 nM, 50 to 70% and above 90%.
For `Cc1nc(N)c(F)cc1[C@@H](CO)NC(C)(C)C` [I-179], at B1-AR, the EC50 was above 1000 nM and the maximal effect (Emax) is below 50%. Also, on B2-AR (CHO-K1 cells), the EC50 was above 1000 nM and the Emax is below 50%.
As to `Cc1nc(N)c(F)cc1[C@H](CO)NC(C)(C)C` [I-180], at B1-AR, the EC50 was above 1000 nM and the Emax is below 50%. Further, on B2-AR (CHO-K1 cells), the EC50 is above 1000 nM and the maximum response (Emax) is below 50%.
With `Cc1ncccc1[C@@H](O)CNC1CC(F)(F)C1` [I-181], at B1-AR, the EC50 is above 1000 nM and the Emax is below 50%. At B2-AR (CHO-K1 cells), the EC50 was above 1000 nM and the maximum response (Emax) was in the range of 50 to 70%.
Regarding `Cc1ncccc1[C@@H](O)CNC1CC(C)(C)C1` [I-182], on B1-AR, the EC50 was above 1000 nM and the Emax is below 50%. At B2-AR (CHO-K1 cells), the EC50 is above 1000 nM and the Emax lay within 50 to 70%.
With `Cc1ncccc1[C@@H](O)CNCC(C)C` [I-183], the EC50 on B1-AR and on B2-AR (CHO-K1 cells) was above 1000 nM in each case. Further, the maximal effect (Emax) at B1-AR was below 50%; on B2-AR (CHO-K1, CHO-K1 cells), 50 to 70%.
On to `Cc1ncccc1[C@@H](O)CNC(C)C` [I-184], for which the EC50 at B1-AR is above 1000 nM; at B2-AR (CHO-K1 cells) it was 100 to 1000 nM. The maximal effect (Emax) on B1-AR is 70 to 90%; at B2-AR (CHO-K1, CHO-K1 cells), 70 to 90%.
On to `Cc1nc(N)c(Cl)cc1[C@H](CO)NC1CC(F)(F)C1` [I-185], for which, on B1-AR, the EC50 is above 1000 nM and the maximal response (Emax) is below 50%. In addition, on B2-AR (CHO-K1 cells), the EC50 is above 1000 nM and the Emax was below 50%.
For `Cc1nc(N)c(Cl)cc1[C@@H](CO)NC1CC(F)(F)C1` [I-186], the EC50 at B1-AR and at B2-AR (CHO-K1 cells) was above 1000 nM each time. The Emax on B1-AR and on B2-AR (CHO-K1 cells) was below 50% each time.
In the case of `Cc1ncccc1[C@@H](O)CNC1CCC1` [I-187], the EC50 on B1-AR was above 1000 nM; at B2-AR (CHO-K1 cells), 100 to 1000 nM. In addition, the Emax at B1-AR lay in the range of 70 to 90%; on B2-AR (CHO-K1, CHO-K1 cells), 70 to 90%.
With `Cc1ncccc1[C@@H](O)CNC1(C)CC1` [I-188], the EC50 at B1-AR was 100 to 1000 nM; at B2-AR (CHO-K1 cells) it was 10 to 100 nM. Moreover, the Emax on B1-AR was above 90%; at B2-AR (CHO-K1, CHO-K1 cells), above 90%.
In the case of `CC(C)(C)NC[C@H](O)c1ccc(Cl)c2[nH]nc(F)c12` [I-189], the EC50 at B1-AR and at B2-AR (CHO-K1 cells) was below 10 nM each time. Further, the Emax on B1-AR is above 90%; on B2-AR (CHO-K1, CHO-K1 cells), 70 to 90%.
